# Laboratory results as given in paper PMC6413118, “Active Components, Antioxidant, Inhibition on Metabolic Syndrome Related Enzymes, and Monthly Variations in Mature Leaf Hawk Tea” (Molecules, 2019).
# Target: T1, porcine pancreatic lipase (Sus scrofa, UniProt P00591)
# T1 construct: gene PNLIP; EC printed is that of carboxylesterase
# T1 sequence (P00591 1-450): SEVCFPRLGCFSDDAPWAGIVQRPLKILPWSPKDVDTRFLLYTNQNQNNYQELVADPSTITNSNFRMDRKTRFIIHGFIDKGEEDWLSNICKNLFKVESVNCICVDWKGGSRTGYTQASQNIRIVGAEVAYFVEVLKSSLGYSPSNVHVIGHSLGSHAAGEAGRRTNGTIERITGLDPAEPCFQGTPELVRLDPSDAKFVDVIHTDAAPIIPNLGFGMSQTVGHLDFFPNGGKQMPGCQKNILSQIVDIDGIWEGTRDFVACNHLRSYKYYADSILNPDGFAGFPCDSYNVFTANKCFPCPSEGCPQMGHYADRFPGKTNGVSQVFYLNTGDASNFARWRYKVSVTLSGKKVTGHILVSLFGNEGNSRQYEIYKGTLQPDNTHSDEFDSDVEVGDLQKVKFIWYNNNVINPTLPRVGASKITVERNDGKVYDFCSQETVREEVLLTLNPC
# Assay: p-nitrophenyl palmitate hydrolysis, absorbance […] nm, microplate
# Type: biochemical
# Conditions: 10 mM p-nitrophenyl palmitate stock (20 μL), 0.1 M sodium phosphate pH 7, 37 °C, 20 min; unreliable: table and text disagree tenfold
smiles,measurement,value
CCCCCCCCCCC[C@@H](C[C@@H]1OC(=O)[C@H]1CCCCCC)OC(=O)[C@H](CC(C)C)NC=O [Orlistat],Lipase IC50,0.6 µg/mL
